pIC50: −log10 of the molar value.

Sequence of wild type CK1δ (P48730 whole entry): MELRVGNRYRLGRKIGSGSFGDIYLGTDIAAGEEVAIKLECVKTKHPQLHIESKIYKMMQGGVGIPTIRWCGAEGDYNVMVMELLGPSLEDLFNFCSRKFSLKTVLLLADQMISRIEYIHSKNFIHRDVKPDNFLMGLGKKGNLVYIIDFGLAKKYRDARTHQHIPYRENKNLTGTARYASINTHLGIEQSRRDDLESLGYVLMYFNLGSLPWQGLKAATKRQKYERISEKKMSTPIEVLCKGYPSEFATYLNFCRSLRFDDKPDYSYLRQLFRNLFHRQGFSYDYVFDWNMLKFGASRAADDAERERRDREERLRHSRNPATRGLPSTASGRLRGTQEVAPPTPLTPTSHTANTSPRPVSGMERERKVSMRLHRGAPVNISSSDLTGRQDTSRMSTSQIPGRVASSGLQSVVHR

This test deals with wild type CK1δ (Homo sapiens, UniProt P48730). Description: CK1δ kinase assay (Kinase-Glo). The class given is biochemical. The settings on record: 10 μM ATP, 2 nM wild type CK1δ, 85 min at 25° C.; read-out: CK1δ inhibition (IC50). Here is the method:
The CK1δ kinase assay was performed with a buffer (40 μL, pH 7.5) containing 50 mM Tris, 10 mM MgCl2, 1 mM dithiothreitol, 100 μg/mL BSA with 10 μM ATP, 2 nM wild type CK1δ, and 42 μM peptide substrate PLSRTLpSVASLPGL (Flotow et al., 1990) in the presence of 1 μL of a CK1δ inhibitor (e.g., a compound of the present application) or 4% DMSO (e.g., as control). The reaction mixture was incubated for 85 min at 25° C.; detection was carried out as described for the Kinase-Glo Assay (Promega). Luminescent output was measured on the Perkin Elmer Envision plate reader (PerkinElmer, Waltham, Mass.).
On the technique in general: In Kinase-Glo more light means more ATP remaining.
For the molecule `Fc1ccc(-n2nc3c(c2-c2ccncc2)CCCC3)cc1` [Compound 1-16, 2-(4-fluorophenyl)-3-(pyridin-4-yl)-4,5,6,7-tetrahydro-2H-indazole], the pIC50 (in general, the negative decadic logarithm of the IC50, by convention in mol/L) is 5.01.

Regarding `CC(=O)N1CCn2c(nc(-c3ccc(F)cc3)c2-c2ccncc2)C1` [Compound 1-7, 1-(2-(4-fluorophenyl)-3-(pyridin-4-yl)-5,6-dihydroimidazo[1,2-a]pyrazin-7(8H)-yl)ethan-1-one], the pIC50 is 6.21.

In the case of `O=C1OCc2nccc(-c3c(-c4ccc(F)cc4)nc4cnccn34)c21` [Compound 1-8, 4-(2-(4-fluorophenyl)imidazo[1,2-a]pyrazin-3-yl)furo[3,4-b]pyridin-5(7H)-one], the pIC50 was under 4.00.

As for `Cc1cc(-c2ccnc3c2C(=O)OC3)n(-c2ccc(F)cc2)n1` [Compound 6-1, 4-(1-(4-fluorophenyl)-3-methyl-1H-pyrazol-5-yl)furo[3,4-b]pyridin-5(7H)-one], the pIC50 is 7.03.

As to `CCC(=O)N1CCn2nc(-c3ccc(F)cc3)c(-c3ccncc3)c2C1` [Compound 1-31, 1-(2-(4-fluorophenyl)-3-(pyridin-4-yl)-6,7-dihydropyrazolo[1,5-a]pyrazin-5(4H)-yl)propan-1-one], the pIC50 was 7.09.

Turning to `C[C@H]1Cn2nc(-c3ccc(F)cc3)c(-c3ccncc3)c2CO1` [Compound 1-45, (S)-2-(4-fluorophenyl)-6-methyl-3-(pyridin-4-yl)-6,7-dihydro-4H-pyrazolo[5,1-c][1,4]oxazine], the pIC50 was 6.43.

As to `Cc1cc(-c2c(-c3ccc(F)cc3)nn3c2CN(C)CC3)ccn1` [Compound 1-56, 2-(4-fluorophenyl)-5-methyl-3-(2-methylpyridin-4-yl)-4,5,6,7-tetrahydropyrazolo[1,5-a]pyrazine], the pIC50 was 6.97.

`Cn1cc(-c2ccncc2)c(-c2ccc(F)cc2)c1C#N` [Compound 3-1, 3-(4-fluorophenyl)-1-methyl-4-(pyridin-4-yl)-1H-pyrrole-2-carbonitrile]: the pIC50 is 6.74.

On to `CC(=O)N1CCn2nc(-c3ccc(F)cc3)c(-c3cc[n+]([O-])c(C)c3)c2C1` [Compound 1-34, 4-(5-acetyl-2-(4-fluorophenyl)-4,5,6,7-tetrahydropyrazolo[1,5-a]pyrazin-3-yl)-2-methylpyridine-1-oxide], for which the pIC50 was under 4.00.

For the molecule `O=C1OCc2nccc(-c3cn4c(c3-c3ccc(F)cc3)C(=O)NCC4)c21` [Compound 5-5, 4-(8-(4-fluorophenyl)-1-oxo-1,2,3,4-tetrahydropyrrolo[1,2-a]pyrazin-7-yl)furo[3,4-b]pyridin-5(7H)-one], the pIC50 was 6.50.

Regarding `Fc1ccc(-n2nncc2-c2ccncc2)cc1` [Compound 4-1, 4-(1-(4-fluorophenyl)-1H-1,2,3-triazol-5-yl)pyridine], the pIC50 is 6.67.

Take `Cn1cc(-c2ccnc3c2C(=O)OC3)c(-c2ccc(F)cc2)c1C#N` [Compound 5-1, 3-(4-fluorophenyl)-1-methyl-4-(5-oxo-5,7-dihydrofuro[3,4-b]pyridin-4-yl)-1H-pyrrole-2-carbonitrile]: the pIC50 is 6.88.

For the molecule `CCc1cc(-c2c(-c3ccc(F)cc3)nn3c2CN(C(C)=O)CC3)ccn1` [Compound 1-52, 1-(3-(2-ethylpyridin-4-yl)-2-(4-fluorophenyl)-6,7-dihydropyrazolo[1,5-a]pyrazin-5(4H)-yl)ethan-1-one], the pIC50 was 5.51.

`Cn1cc(-c2ccncc2)c(-c2ccc(F)cc2Cl)n1` [Compound 3-18, 4-(3-(2-chloro-4-fluorophenyl)-1-methyl-1H-pyrazol-4-yl)pyridine]: the pIC50 is 5.36.

On to `CC(=O)N1CCn2nc(-c3ccc(F)cc3)c(-c3ccnc(C(C)C)c3)c2C1` [Compound 1-53, 1-(2-(4-fluorophenyl)-3-(2-isopropylpyridin-4-yl)-6,7-dihydropyrazolo[1,5-a]pyrazin-5(4H)-yl)ethan-1-one], for which the pIC50 was 4.77.

Turning to `Fc1ccc(-c2nn3c(c2-c2ccncc2)CNCC3)cc1` [Compound 1-13, 2-(4-fluorophenyl)-3-(pyridin-4-yl)-4,5,6,7-tetrahydropyrazolo[1,5-a]pyrazine], the pIC50 was 7.17.

As for `Fc1ccc(-c2nn3c(c2-c2ccncc2)COCC3)cc1` [Compound 1-27, 2-(4-fluorophenyl)-3-(pyridin-4-yl)-6,7-dihydro-4H-pyrazolo[5,1-c][1,4]oxazine], the pIC50 was 6.79.

For the molecule `Nc1cc(-c2c(-c3ccc(F)cc3)nn3c2OCC3)ccn1` [Compound 1-54, 4-(6-(4-fluorophenyl)-2,3-dihydropyrazolo[5,1-b]oxazol-7-yl)pyridin-2-amine], the pIC50 was 6.10.

`Cn1cc(-c2ccncc2)c(-c2cccc(F)c2)n1` [Compound 3-19, 4-(3-(3-fluorophenyl)-1-methyl-1H-pyrazol-4-yl)pyridine]: the pIC50 was 6.55.

Consider `Cn1cc(-c2ccncc2)c(-c2cc(F)cc(F)c2)n1` [Compound 3-17, 4-(3-(3,5-difluorophenyl)-1-methyl-1H-pyrazol-4-yl)pyridine], for which the pIC50 was 5.99.

For `Nc1cc(-c2c(-c3ccc(F)cc3)nn3c2CNCC3)ccn1` [Compound 1-58, 4-(2-(4-fluorophenyl)-4,5,6,7-tetrahydropyrazolo[1,5-a]pyrazin-3-yl)pyridin-2-amine], the pIC50 was 6.14.

For the molecule `CN1CCn2nc(-c3ccc(F)cc3)c(-c3ccncc3)c2C1` [Compound 1-42, 2-(4-fluorophenyl)-5-methyl-3-(pyridin-4-yl)-4,5,6,7-tetrahydropyrazolo[1,5-a]pyrazine], the pIC50 is 6.79.

As for `CN1CCC(C(=O)N2CCn3nc(-c4ccc(F)cc4)c(-c4ccncc4)c3C2)CC1` [Compound 1-36, (2-(4-fluorophenyl)-3-(pyridin-4-yl)-6,7-dihydropyrazolo[1,5-a]pyrazin-5(4H)-yl)(1-methylpiperidin-4-yl)methanone], the pIC50 was 6.55.

`C[C@@H]1CNC(=O)c2c(-c3ccncc3)c(-c3ccc(F)cc3)nn21` [Compound 1-44, (R)-2-(4-fluorophenyl)-7-methyl-3-(pyridin-4-yl)-6,7-dihydropyrazolo[1,5-a]pyrazin-4(5H)-one]: the pIC50 was 5.73.

For the molecule `COC(=O)c1c(-c2ccc(F)cc2)c(-c2ccncc2)cn1C` [Compound 3-5, methyl 3-(4-fluorophenyl)-1-methyl-4-(pyridin-4-yl)-1H-pyrrole-2-carboxylate], the negative-log IC50 (pIC50) is 5.11.

Consider `Cn1cc(-c2ccncc2)c(-c2ccccc2F)n1` [Compound 3-14, 4-(3-(2-fluorophenyl)-1-methyl-1H-pyrazol-4-yl)pyridine], for which the pIC50 was 5.97.

`Fc1ccc(-c2nn3c(c2-c2ccncc2)CN(Cc2ccccc2)CC3)cc1` [Compound 1-12, 5-benzyl-2-(4-fluorophenyl)-3-(pyridin-4-yl)-4,5,6,7-tetrahydropyrazolo[1,5-a]pyrazine]: the pIC50 was 7.13.

Turning to `Cn1nc(-c2ccncc2)c(-c2ccc(F)cc2)n1` [Compound 3-6, 4-(5-(4-fluorophenyl)-2-methyl-2H-1,2,3-triazol-4-yl)pyridine], the pIC50 was 6.75.

`CC(=O)N1CCn2nc(-c3ccc(F)cc3)c(-c3ccnc(C)c3)c2C1` [Compound 1-33, 1-(2-(4-fluorophenyl)-3-(2-methylpyridin-4-yl)-6,7-dihydropyrazolo[1,5-a]pyrazin-5(4H)-yl)ethan-1-one]: the pIC50 is 6.75.

With `Cn1nnc(-c2ccc(F)cc2)c1-c1ccncc1` [Compound 3-9, 4-(4-(4-fluorophenyl)-1-methyl-1H-1,2,3-triazol-5-yl)pyridine], the pIC50 is 4.67.

With `Fc1ccc(-c2nn3c(c2-c2ccncc2)COCCC3)cc1` [Compound 1-47, 2-(4-fluorophenyl)-3-(pyridin-4-yl)-7,8-dihydro-4H,6H-pyrazolo[5,1-c][1,4]oxazepine], the pIC50 is 6.16.

Consider `Cn1cc(-c2ccnc3[nH]cnc23)c(-c2ccc(F)cc2)c1C#N` [Compound 5-4, 3-(4-fluorophenyl)-4-(3H-imidazo[4,5-b]pyridin-7-yl)-1-methyl-1H-pyrrole-2-carbonitrile], for which the pIC50 is 5.66.

For the molecule `Cn1cc(-c2ccncc2)c(-c2ccc(F)cc2)c1C(N)=O` [Compound 3-2, 3-(4-fluorophenyl)-1-methyl-4-(pyridin-4-yl)-1H-pyrrole-2-carboxamide], the pIC50 is 4.95.

With `CC(=O)N1CCn2nc(-c3ccc(F)cc3)c(-c3ccnc(C)n3)c2C1` [Compound 1-51, 1-(2-(4-fluorophenyl)-3-(2-methylpyrimidin-4-yl)-6,7-dihydropyrazolo[1,5-a]pyrazin-5(4H)-yl)ethan-1-one], the pIC50 was 6.02.

Regarding `COC(=O)c1[nH]cc(-c2ccncc2)c1-c1ccc(F)cc1` [Compound 3-4, methyl 3-(4-fluorophenyl)-4-(pyridin-4-yl)-1H-pyrrole-2-carboxylate], the pIC50 is 6.32.

For `CC(C)C(=O)N1CCn2nc(-c3ccc(F)cc3)c(-c3ccncc3)c2C1` [Compound 1-32, 1-(2-(4-fluorophenyl)-3-(pyridin-4-yl)-6,7-dihydropyrazolo[1,5-a]pyrazin-5(4H)-yl)-2-methylpropan-1-one], the pIC50 is 6.43.

Take `Fc1ccc(-c2nc3n(c2-c2ccncc2)CCNC3)cc1` [Compound 1-6, 2-(4-fluorophenyl)-3-(pyridin-4-yl)-5,6,7,8-tetrahydroimidazo[1,2-a]pyrazine]: the pIC50 was 6.60.

With `Cn1cc(-c2ccncc2)c(-c2ccc(F)cc2F)n1` [Compound 3-15, 4-(3-(2,4-difluorophenyl)-1-methyl-1H-pyrazol-4-yl)pyridine], the pIC50 is 6.28.

For the molecule `Cn1cc(-c2ccncc2)c(-c2ccc(F)c(F)c2)n1` [Compound 3-16, 4-(3-(3,4-difluorophenyl)-1-methyl-1H-pyrazol-4-yl)pyridine], the pIC50 is 6.30.

The record behind these values is patent US20230192699A1, “COMPOUNDS AS CASEIN KINASE INHIBITORS” (GRITSCIENCE BIOPHARMACEUTICALS CO., LTD., priority 2020, published 2023).
